The source of these data is patent US6436940B1, “Indane or dihydroindole derivatives” (H. Lundbeck A/S, priority 1996, dated 2002).

Where a name gives a salt, the structure may show the parent alone.

In data set [1] the target is T1, dopamine D4 receptors in cloned human dopamine receptor subtype 4.2 membranes (Homo sapiens, UniProt P21917, DEL265-296).
T1 construct: purchased Dupharma A/S, Denmark CRM-016
T1 sequence (P21917 with tags, fused parts or gaps DEL265-296): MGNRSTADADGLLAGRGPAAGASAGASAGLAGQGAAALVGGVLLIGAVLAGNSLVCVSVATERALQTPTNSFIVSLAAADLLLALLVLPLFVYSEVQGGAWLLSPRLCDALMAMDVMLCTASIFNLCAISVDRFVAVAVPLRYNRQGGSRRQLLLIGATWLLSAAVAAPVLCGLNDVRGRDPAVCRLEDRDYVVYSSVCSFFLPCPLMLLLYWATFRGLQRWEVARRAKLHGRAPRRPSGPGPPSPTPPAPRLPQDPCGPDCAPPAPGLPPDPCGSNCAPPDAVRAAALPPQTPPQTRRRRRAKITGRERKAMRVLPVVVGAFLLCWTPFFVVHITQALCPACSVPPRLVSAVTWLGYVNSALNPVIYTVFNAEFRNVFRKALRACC
Nature of the data set: 3H-YM-09151-2 binding. The note with it: 3H-YM-09151-2, cloned human D4.2 membranes. How it is done: By this method the inhibition by drugs of the binding of the dopamine D4 antagonist ^3H-YM-09151-2 to dopamine D4 receptors in cloned human dopamine receptor subtype 4.2 membranes is determined in vitro. Accordingly, this is a test for affinity for dopamine D4 receptors. The test is performed using a preparation of cloned dopamine D4 cell membranes CRM-016®, Dupharma A/S, Denmark, in accordance with the product specifications.

`c1ccc2c(c1)CCC2CCN1CCN(c2ccc3c(c2)OCO3)CC1` (centres unmarked) (as salt: fumarate) [Compound 6a, 1-[2-[4-(3,4-Methylenedioxyphenyl)-piperazine-1-yl]ethyl]-indane] showed a melting point of 191 to 192 °C. On the same count and under the same terms, the value for `c1ccc2c(c1)CC(CN1CCN(c3ccc4c(c3)OCO4)CC1)C2` (as salt: oxalate) [Compound 6b] was 197 to 199 °C. Molecule `c1ccc2c(c1)CCC2CN1CCN(c2ccc3c(c2)OCO3)CC1` (centres unmarked) [Compound 4a] showed an IC50 in data set [1] of 8.8 nM. This counts as single-digit nanomolar.

Take `Brc1ccc2c(c1)C(CN1CCN(c3ccc4c(c3)OCO4)CC1)CC2` (centres unmarked) [Compound 4b]: the “% inhibition of binding at 50 nM” value in data set [1] (at 50 nM) stood at 33% at 50 nM. In data set [1], `c1ccc2c(c1)CCC2CCN1CCN(c2ccc3c(c2)OCO3)CC1` (centres unmarked) [Compound 6a, 1-[2-[4-(3,4-Methylenedioxyphenyl)-piperazine-1-yl]ethyl]-indane] displayed an IC50 of 5.6 nM. In other words, the single-digit nanomolar range. On the same count and under the same terms, the value for `c1ccc2c(c1)CC(CN1CCN(c3ccc4c(c3)OCO4)CC1)C2` [Compound 6b] was 1.8 nM; that for `O=C(CCCN1CCN(c2ccc3c(c2)OCO3)CC1)C1CNc2ccccc21` (centres unmarked) [Compound 9a, 2,3-Dihydro-3-[4-[4[(3,4-methylenedioxyphenyl)piperazine-1-yl]butyl-1-oxo]]-1H-indole] was 4.3 nM; that for `CC(=O)N1CC(CCN2CCN(c3ccc4c(c3)OCO4)CC2)c2ccccc21` (centres unmarked) [Compound 9b, 1-Acetyl-2,3-dihydro-3-[2-[4-[(3,4-methylenedioxyphenyl)piperazine-1-yl]ethyl]]1H-indole] was 3.7 nM.
